Laboratory results reported in US20240083857A1, “2-Methyl-Quinazolines” (Bayer Pharma Aktiengesellschaft, priority 2017, published 2024).

Columns and labels:
[1] = target: K-Ras^G12C : hSOS1 interaction (Homo sapiens, UniProt Q07889); experiment: Biochemical assay 1: K-Ras^G12C interaction assay with hSOS1 (HTRF); type: binding; details: for IC50: read-out: Assay 1 (KRAS-SOS Interaction) activity expressed as IC50; for inhibition at 20 µM: read-out: Assay 1 (KRAS-SOS Interaction) activity expressed as % inhibition at 20 μM
[2] = target: human SOS1 (nucleotide exchange of K-Ras^G12C) (Homo sapiens, UniProt Q07889); experiment: Biochemical assay 2: K-Ras^G12C activation assay by hSOS1 at high GTP concentration (HTRF); details: high GTP; for IC50: read-out: Assay 2 (KRAS-Activation by SOS high GTP) activity expressed as IC50; for inhibition at 20 µM: read-out: Assay 2 (KRAS-Activation by SOS high GTP) activity expressed as % inhibition at 20 μM
[3] = target: human SOS1 (loading of human K-Ras^G12C-GDP with fluorescent GTP-analog) (Homo sapiens, UniProt Q07889); experiment: Biochemical assay 3: K-Ras^G12C activation assay by hSOS1 (HTRF); details: no GTP; for IC50: read-out: Assay 3 (KRAS-Activation by SOS no GTP) activity expressed as IC50; for inhibition at 20 µM: read-out: Assay 3 (KRAS-Activation by SOS no GTP) activity expressed as % inhibition at 20 μM

SMILES | IC50 [1] [µM] | IC50 [2] [µM] | IC50 [3] [µM] | inhibition at 20 µM [2] [%] | inhibition at 20 µM [3] [%] | inhibition at 20 µM [1] [%]
CCCNC(=O)c1ccc(-c2cccc([C@@H](C)Nc3nc(C)nc4cc(OC)c(OC)cc34)c2)cc1 [Example 73, 3′-{(1R)-1-[(6,7-dimethoxy-2-methylquinazolin-4-yl)amino]ethyl}-N-propylbiphenyl-4-carboxamide] | 0.427 | 0.554 | 0.495 |  |  | 
COc1cc2nc(C)nc(N[C@H](C)c3cccc(-c4ccc(C(=O)NCCN(C)C)cc4)c3)c2cc1OC [Example 74, 3′-{(1R)-1-[(6,7-dimethoxy-2-methylquinazolin-4-yl)amino]ethyl}-N-[2-(dimethylamino)ethyl]biphenyl-4-carboxamide] | 0.149 | 0.223 | 0.261 |  |  | 
COc1cc2nc(C)nc(N[C@H](C)c3cccc(-c4ccn[nH]4)c3)c2cc1OC [Example 75, 6,7-dimethoxy-2-methyl-N-{(1R)-1-[3-(1H-pyrazol-3-yl)phenyl]ethyl}quinazolin-4-amine] | 0.588 | 1.15 | 1.01 |  |  | 
C/C=C(\C)c1cccc([C@@H](C)Nc2nc(C)nc3cc(OC)c(OC)cc23)c1 [Example 76, N-[(1R)-1-{3-[(2E)-but-2-en-2-yl]phenyl}ethyl]-6,7-dimethoxy-2-methylquinazolin-4-amine] | 0.471 | 1.19 | 0.952 |  |  | 
CCCOc1ccc(Cl)cc1-c1cccc([C@@H](C)Nc2nc(C)nc3cc(OC)c(OC)cc23)c1 [Example 77, N-[(1R)-1-(5′-chloro-2′-propoxybiphenyl-3-yl)ethyl]-6,7-dimethoxy-2-methylquinazolin-4-amine] | 7.86 | 9.63 | 19.9 |  |  | 
COc1cc2nc(C)nc(N[C@H](C)c3cccc(/C=C/Cc4ccccc4)c3)c2cc1OC [Example 78, 6,7-dimethoxy-2-methyl-N-[(1R)-1-{3-[(1E)-3-phenylprop-1-en-1-yl]phenyl}ethyl]quinazolin-4-amine] | 8.55 |  |  | 45 | 31 | 
COc1cc2nc(C)nc(N[C@H](C)c3cccc(-c4ccc(N5CCOCC5)cc4)c3)c2cc1OC [Example 79, 6,7-dimethoxy-2-methyl-N-{(1R)-1-[4′-(morpholin-4-yl)biphenyl-3-yl]ethyl}quinazolin-4-amine] | 1.55 | 0.937 | 1.65 |  |  | 
COc1cc2nc(C)nc(N[C@H](C)c3cccc(-c4cccc(N5CCOCC5)c4)c3)c2cc1OC [Example 80, 6,7-dimethoxy-2-methyl-N-{(1R)-1-[3′-(morpholin-4-yl)biphenyl-3-yl]ethyl}quinazolin-4-amine] | 0.721 | 0.711 | 1.12 |  |  | 
COc1cc2nc(C)nc(N[C@H](C)c3cccc(-c4ccccc4OCc4ccccc4)c3)c2cc1OC [Example 81, N-{(1R)-1-[2′-(benzyloxy)biphenyl-3-yl]ethyl}-6,7-dimethoxy-2-methylquinazolin-4-amine] |  |  |  | 33 | 24 | 42
COc1cc2nc(C)nc(N[C@H](C)c3cccc(-c4ccc(S(C)(=O)=O)cc4)c3)c2cc1OC [Example 82, 6,7-dimethoxy-2-methyl-N-{(1R)-1-[4′-(methylsulfonyl)biphenyl-3-yl]ethyl}quinazolin-4-amine] | 0.598 | 0.857 | 1 |  |  | 
COc1cc2nc(C)nc(N[C@H](C)c3cccc(-c4ccccc4OC(F)(F)F)c3)c2cc1OC [Example 83, 6,7-dimethoxy-2-methyl-N-{(1R)-1-[2′-(trifluoromethoxy)biphenyl-3-yl]ethyl}quinazolin-4-amine] | 8.5 | 7.85 | 17.4 |  |  | 
COc1cc2nc(C)nc(N[C@H](C)c3cccc(-c4cccc(OC(F)(F)F)c4)c3)c2cc1OC [Example 84, 6,7-dimethoxy-2-methyl-N-{(1R)-1-[3′-(trifluoromethoxy)biphenyl-3-yl]ethyl}quinazolin-4-amine] | 5.33 | 7.2 | 11 |  |  | 
COc1cc2nc(C)nc(N[C@H](C)c3cccc(-c4ccc5[nH]ccc5c4)c3)c2cc1OC [Example 85, N-{(1R)-1-[3-(1H-indol-5-yl)phenyl]ethyl}-6,7-dimethoxy-2-methylquinazolin-4-amine] | 0.687 | 0.756 | 1.26 |  |  | 
COc1cc2nc(C)nc(N[C@H](C)c3cccc(-c4ccoc4)c3)c2cc1OC [Example 86, N-{(1R)-1-[3-(furan-3-yl)phenyl]ethyl}-6,7-dimethoxy-2-methylquinazolin-4-amine] | 0.581 | 0.935 | 0.693 |  |  | 
COc1cc2nc(C)nc(N[C@H](C)c3cccc(-c4csc5ccccc45)c3)c2cc1OC [Example 87, N-{(1R)-1-[3-(1-benzothiophen-3-yl)phenyl]ethyl}-6,7-dimethoxy-2-methylquinazolin-4-amine] | 4.42 | 3.46 | 7.42 |  |  | 
COc1cc2nc(C)nc(N[C@H](C)c3cccc(-c4cc5ccccc5n4C)c3)c2cc1OC [Example 88, 6,7-dimethoxy-2-methyl-N-{(1R)-1-[3-(1-methyl-1H-indol-2-yl)phenyl]ethyl}quinazolin-4-amine] | 3.56 | 2.56 | 6.18 |  |  | 
CCC/C=C/c1cccc([C@@H](C)Nc2nc(C)nc3cc(OC)c(OC)cc23)c1 [Example 89, 6,7-dimethoxy-2-methyl-N-[(1R)-1-{3-[(1E)-pent-1-en-1-yl]phenyl}ethyl]quinazolin-4-amine] | 1.68 | 2.68 | 4.26 |  |  | 
COc1cc2nc(C)nc(N[C@H](C)c3cccc(/C=C/C4CCCCC4)c3)c2cc1OC [Example 90, N-[(1R)-1-{3-[(E)-2-cyclohexylethenyl]phenyl}ethyl]-6,7-dimethoxy-2-methylquinazolin-4-amine] | 11 |  |  | 46 | 33 | 
COc1cc2nc(C)nc(N[C@H](C)c3cccc(-c4ccccc4Oc4ccccc4)c3)c2cc1OC [Example 91, 6,7-dimethoxy-2-methyl-N-[(1R)-1-(2′-phenoxybiphenyl-3-yl)ethyl]quinazolin-4-amine] | 15 |  |  | 36 | 38 | 
COc1cc2nc(C)nc(N[C@H](C)c3cccc(-c4ccc(NC(=O)OC(C)(C)C)cc4)c3)c2cc1OC [Example 92, tert-butyl (3′-{(1R)-1-[(6,7-dimethoxy-2-methylquinazolin-4-yl)amino]ethyl}biphenyl-4-yl)carbamate] | 4.7 | 3.67 | 9.26 |  |  | 
COc1cc2nc(C)nc(N[C@H](C)c3cccc(-c4cccc(/C=C/C#N)c4)c3)c2cc1OC [Example 93, (2E)-3-(3′-{(1R)-1-[(6,7-dimethoxy-2-methylquinazolin-4-yl)amino]ethyl}biphenyl-3-yl)prop-2-enenitrile] | 1.85 | 1.58 | 2.89 |  |  | 
COc1cc2nc(C)nc(N[C@H](C)c3cccc(-c4ccc(C)cc4C)c3)c2cc1OC [Example 94, N-[{1R)-1-(2′,4′-dimethylbiphenyl-3-yl)ethyl]-6,7-dimethoxy-2-methylquinazolin-4-amine] | 2.42 | 3.14 | 4.28 |  |  | 
COc1cc2nc(C)nc(N[C@H](C)c3cccc(-c4ccc(C(C)=O)s4)c3)c2cc1OC [Example 95, 1-[5-(3-{(1R)-1-[(6,7-dimethoxy-2-methylquinazolin-4-yl)amino]ethyl}phenyl)thiophen-2-yl]ethanone] | 0.801 | 0.473 | 1.08 |  |  | 
COc1cc2nc(C)nc(N[C@H](C)c3cccc(-c4ccc5c(c4)OCO5)c3)c2cc1OC [Example 96, N-{(1R)-1-[3-(1,3-benzodioxol-5-yl)phenyl]ethyl}-6,7-dimethoxy-2-methylquinazolin-4-amine] | 1.04 | 1.09 | 1.39 |  |  | 
COc1cc2nc(C)nc(N[C@H](C)c3cccc(-c4ccc(OCc5ccccc5)cc4)c3)c2cc1OC [Example 97, N-{(1R)-1-[4′-(benzyloxy)biphenyl-3-yl]ethyl}-6,7-dimethoxy-2-methylquinazolin-4-amine] |  |  |  | 28 | 38 | 39
COc1cccc(-c2cccc([C@@H](C)Nc3nc(C)nc4cc(OC)c(OC)cc34)c2)c1 [Example 99, 6,7-dimethoxy-N-[(1R)-1-(3′-methoxybiphenyl-3-yl)ethyl]-2-methylquinazolin-4-amine] | 2.18 | 1.42 | 2.63 |  |  | 
COc1cc2nc(C)nc(N[C@H](C)c3cccc(-c4cccc(C(F)(F)F)c4)c3)c2cc1OC [Example 100, 6,7-dimethoxy-2-methyl-N-{(1R)-1-[3′-(trifluoromethyl)biphenyl-3-yl]ethyl}quinazolin-4-amine] | 5.35 | 4.51 | 8.52 |  |  | 
COc1cc2nc(C)nc(N[C@H](C)c3cccc(-c4ccccc4S(=O)(=O)N(C)C)c3)c2cc1OC [Example 101, 3′-{(1R)-1-[(6,7-dimethoxy-2-methylquinazolin-4-yl)amino]ethyl}-N,N-dimethylbiphenyl-2-sulfonamide] | 0.715 | 0.897 | 1.8 |  |  | 
CCCOc1ccccc1-c1cccc([C@@H](C)Nc2nc(C)nc3cc(OC)c(OC)cc23)c1 [Example 102, 6,7-dimethoxy-2-methyl-N-[(1R)-1-(2′-propoxybiphenyl-3-yl)ethyl]quinazolin-4-amine] | 6.38 | 3.56 | 11.5 |  |  | 
